Laboratory results: publication PMC10673511, “Design, Synthesis and Bioactivity Evaluation of Heterocycle-Containing Mono- and Bisphosphonic Acid Compounds” (Molecules, 2023)
In brackets after ≈: the same amount, converted by molar mass. Read-outs that look alike come from different tables or passages of the source.

What was measured:
[1] = target: recombinant E. coli DXR (EcDXR) (Escherichia coli, UniProt P45568); assay: biochemical; conditions: read-out: InR (%) on DXR enzyme
[2] = system: Arabidopsis thaliana; assay: Arabidopsis growth inhibition assay (24-well plates, green channel pixel value); conditions: Arabidopsis thaliana, 240 h; for EC50: read-out: EC50 against Arabidopsis growth; for pest or weed control at 100 µg/mL: read-out: InR (%) against Arabidopsis
[3] = system: Echinochloa crus-galli; assay: Pre-emergence herbicidal inhibition assay, Petri dish test, EC; assay type: in vivo; conditions: for EC50: Echinochloa crus-galli, 168 h
Experimental: (§1) The pre-emergence activity of the compounds against monocot Echinochloa crus-galli (EC) and dicot Brassica napus L. (BN) was evaluated using the standard Petri dish test. The compounds were dissolved in DMF, emulsified with Tween-80 and diluted with water to form stock solutions, each of which was further diluted to a gradient of 100, 50, 25, 10 and 1 mg/L for test. The test solutions were added to Petri dishes lined with a filter paper, on which 10 seeds of EC and BN were placed. After cultured in an intelligent climate chamber with a humidity of 65% at 26 °C for 7 days, the corresponding EC50 values were calculated.

[4] = system: Brassica napus L.; assay: Pre-emergence herbicidal inhibition assay, Petri dish test, BN; assay type: in vivo; conditions: for EC50: Brassica napus, 168 h
Experimental: as §1

[5] = root, 7 days, read-out: EC50 EC Root
[6] = stalk, 7 days, read-out: EC50 EC Stalk
[7] = root, 7 days, read-out: EC50 BN Root
[8] = stalk, 7 days, read-out: EC50 BN Stalk

Chain of recombinant E. coli DXR (EcDXR) (P45568 whole entry): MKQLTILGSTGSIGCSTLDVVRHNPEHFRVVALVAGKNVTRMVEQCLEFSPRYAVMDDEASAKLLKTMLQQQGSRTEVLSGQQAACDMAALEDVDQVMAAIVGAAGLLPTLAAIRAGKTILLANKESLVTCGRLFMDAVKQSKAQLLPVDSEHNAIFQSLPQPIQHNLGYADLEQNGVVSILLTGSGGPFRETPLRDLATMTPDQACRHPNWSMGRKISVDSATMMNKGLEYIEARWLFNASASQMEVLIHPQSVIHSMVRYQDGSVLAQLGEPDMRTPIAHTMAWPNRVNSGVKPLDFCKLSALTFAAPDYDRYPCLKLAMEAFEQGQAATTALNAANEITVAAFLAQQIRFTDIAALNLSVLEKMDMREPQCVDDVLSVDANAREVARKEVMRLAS

SMILES | inhibition at 100 µM [1] | EC50 [2] | pest or weed control at 100 µg/mL [2] | EC50 [3, 5] | EC50 [3, 6] | EC50 [4, 7] | EC50 [4, 8] | melting point | EC50 ([3]; read-out: EC50 EC Root) | EC50 ([3]; read-out: EC50 EC Stalk) | EC50 ([4]; read-out: EC50 BN Root) | EC50 ([4]; read-out: EC50 BN Stalk) | Relative activity ratio (EC root) ([3]; relative to FOS) | Relative activity ratio (EC stalk) ([3]; relative to FOS) | Relative activity ratio (BN root) ([4]; relative to FOS) | Relative activity ratio (BN stalk) ([4]; relative to FOS)
CCCc1onc(O)c1CCP(=O)(O)O [Compound 6c] | 7.5% | > 100 µg/mL | 42% | 65.4 µg/mL (≈ 278 µM) | 41.1 µg/mL (≈ 175 µM) | 99.7 µg/mL (≈ 424 µM) | 33.7 µg/mL (≈ 143 µM) | – | – | – | – | – | – | – | – | –
O=P(O)(O)C(Cc1c(C(F)F)n[nH]c1O)P(=O)(O)O [Compound 12f] | 6.1% | > 100 µg/mL | 47% | 36.5 µg/mL (≈ 113 µM) | 12.6 µg/mL (≈ 39.1 µM) | 15.6 µg/mL (≈ 48.4 µM) | 22.3 µg/mL (≈ 69.2 µM) | 228 to 229 °C | – | – | – | – | – | – | – | –
O=P(O)(O)C(Cc1c(C(F)(F)F)n[nH]c1O)P(=O)(O)O [Compound 12e] | 22.8% | > 100 µg/mL | 31.5% | 46.8 µg/mL (≈ 138 µM) | > 100 µg/mL | > 100 µg/mL | 45.7 µg/mL (≈ 134 µM) | 225 to 226 °C | – | – | – | – | – | – | – | –
Cc1noc(C)c1CCP(=O)(O)O [Compound 6e] | 12.1% | > 100 µg/mL | 12.3% | – | – | – | – | > 250 °C | > 100 µg/mL | 54.1 µg/mL (≈ 264 µM) | > 100 µg/mL | 68.4 µg/mL (≈ 333 µM) | – | – | – | –
CCc1n[nH]c(O)c1CC(P(=O)(O)O)P(=O)(O)O [Compound 12b] | 21.9% | > 100 µg/mL | 29.6% | 77.5 µg/mL (≈ 258 µM) | 55.3 µg/mL (≈ 184 µM) | 61.6 µg/mL (≈ 205 µM) | 24.5 µg/mL (≈ 81.6 µM) | > 250 °C | – | – | – | – | – | – | – | –
CCCc1n[nH]c(O)c1CCP(=O)(O)O [Compound 5c] | 6.1% | > 100 µg/mL | 43.6% | 76.3 µg/mL (≈ 326 µM) | 10.6 µg/mL (≈ 45.3 µM) | > 100 µg/mL | 48.2 µg/mL (≈ 206 µM) | 228 to 229 °C | – | – | – | – | – | – | – | –
Cc1n[nH]c(C)c1CC(P(=O)(O)O)P(=O)(O)O [Compound 12g] | 11.6% | > 100 µg/mL | 40.4% | 38.8 µg/mL (≈ 137 µM) | 31.4 µg/mL (≈ 111 µM) | > 100 µg/mL | 32.9 µg/mL (≈ 116 µM) | > 250 °C | – | – | – | – | – | – | – | –
Cc1n[nH]c(C)c1CCP(=O)(O)O [Compound 5e] | 23% | > 100 µg/mL | 15.8% | – | – | – | – | > 250 °C | > 100 µg/mL | 59.6 µg/mL (≈ 292 µM) | 63 µg/mL (≈ 309 µM) | > 100 µg/mL | – | – | – | –
CCc1onc(O)c1CCP(=O)(O)O [Compound 6b] | 19.5% | > 100 µg/mL | 46.5% | – | – | – | – | – | 24.7 µg/mL (≈ 112 µM) | 36.1 µg/mL (≈ 163 µM) | 70.1 µg/mL (≈ 317 µM) | 65.8 µg/mL (≈ 298 µM) | – | – | – | –
Cc1n[nH]c(C(F)(F)F)c1CC(P(=O)(O)O)P(=O)(O)O [Compound 12i] | 27.1% | 88.3 ± 4.3 µg/mL (≈ 261 µM) | 55.8% | 53.1 µg/mL (≈ 157 µM) | 47.7 µg/mL (≈ 141 µM) | 36.6 µg/mL (≈ 108 µM) | 21.7 µg/mL (≈ 64.2 µM) | > 250 °C | – | – | – | – | 0.8 fold | 0.8 fold | 0.9 fold | 1.5 fold
